# Data from ChEMBL document CHEMBL5033996, “Design, Synthesis, and Bioactivity Evaluation of Dual-Target Inhibitors of Tubulin and Src Kinase Guided by Crystal Structure” (J Med Chem, 2021).
# The source made the active and inactive calls. No cut-off for these calls is given here.
# Experiments:
# [1] = test system: SK-OV-3; test: Induction of mitotic block in human SK-OV-3 cells at 10 to 30 nM in absence of colchicine measured immediately by flow cytometry analysis; format: functional, cell-based; conditions: dose 10-30 nM
# [2] = test system: K562; test: Antiproliferative activity against human K562 cells assessed as inhibition of cell proliferation measured after 72 hrs by MTT assay; format: functional, cell-based; conditions: K562, 72 h
# [3] = test system: Ramos; test: Antiproliferative activity against human Ramos cells assessed as inhibition of cell proliferation measured after 72 hrs by MTT assay; format: functional, cell-based
# [4] = test system: SK-OV-3; test: Antiproliferative activity against human SK-OV-3 cells assessed as inhibition of cell proliferation measured after 72 hrs by MTT assay; format: functional, cell-based; conditions: SK-OV-3, 72 h
# [5] = test system: SK-OV-3; test: Induction of cell cycle arrest in human SK-OV-3 cells assessed as accumulation of cells at S phase at 10 nM incubated for 24 hrs by PI staining based flow cytometry analysis (reference value: 21.4 %); format: functional
# [6] = test system: SK-OV-3; test: Induction of cell cycle arrest in human SK-OV-3 cells assessed as accumulation of cells at G0/G1 phase at 1 nM incubated for 24 hrs by PI staining based flow cytometry analysis (Rvb= 49.60%); format: functional
# [7] = Tmax in Sprague-Dawley rat at 5 mg/kg, po measured up to 24 hrs by LC/MS/MS analysis; format: ADME, organism-based; conditions: in vivo
# [8] = test system: SK-OV-3; test: Induction of mitotic block in human SK-OV-3 cells at 10 to 30 nM in presence of colchicine measured immediately by flow cytometry analysis; format: functional, cell-based; conditions: dose 10-30 nM
# [9] = Toxicity in mouse xenografted with human SK-OV-3 cells assessed as effect on body weight at 10 mg/kg, po administered for 30 days; format: organism-based; conditions: in vivo, 720 h, time 30 day
# [10] = Toxicity in C57 mouse at 40 mg/kg, po administered twice daily; format: organism-based; conditions: in vivo
# [11] = test system: SK-OV-3; test: Induction of mitotic block in human SK-OV-3 cells at 300 nM measured after 10 hrs by flow cytometry analysis; format: functional, cell-based
# [12] = Antitumor activity against human SK-OV-3 cells xenografted in nude mouse assessed as tumor growth inhibition at 10 mg/kg, po measured every 3 days for 1 month by vernier caliper analysis relative to control; format: functional; conditions: SK-OV-3, po, 730 h, time 1 months, read-out: TGI
# [13] = target: Tubulin; test: Binding affinity to tubulin (unknown origin) assessed as dissociation constant by tryptophan based binding assay; format: protein-complex assay, Homo sapiens
# [14] = Cmax in Sprague-Dawley rat at 5 mg/kg, po measured up to 24 hrs by LC/MS/MS analysis; format: ADME, organism-based; set-up: route oral, dose 5 mg/kg, time <=24; conditions: in vivo
# [15] = AUC (0 to t) in Sprague-Dawley rat at 5 mg/kg, po measured up to 24 hrs by LC/MS/MS analysis; format: ADME, organism-based; set-up: route oral, dose 5 mg/kg, time <=24; conditions: in vivo
# [16] = Half life in Sprague-Dawley rat at 5 mg/kg, po measured up to 24 hrs by LC/MS/MS analysis; format: ADME, organism-based; conditions: in vivo
# [17] = test system: SK-OV-3; test: Induction of cell cycle arrest in human SK-OV-3 cells assessed as accumulation od cells at G2/M phase at 5 nM incubated for 24 hrs by PI staining based flow cytometry analysis (reference value: 28.94%); format: functional
# [18] = Oral bioavailability in Sprague-Dawley rat at 5 mg/kg measured up to 24 hrs by LC/MS/MS analysis; format: ADME, organism-based; conditions: in vivo
# [19] = test system: SK-OV-3; test: Induction of cell cycle arrest in human SK-OV-3 cells assessed as accumulation of cells at S phase at 5 nM incubated for 24 hrs by PI staining based flow cytometry analysis (reference value: 21.4 %); format: functional
# [20] = test system: SK-OV-3; test: Induction of cell cycle arrest in human SK-OV-3 cells assessed as accumulation of cells at G0/G1 phase at 5 nM incubated for 24 hrs by PI staining based flow cytometry analysis (reference value: 49.60 %); format: functional
# [21] = test system: SK-OV-3; test: Induction of cell cycle arrest in human SK-OV-3 cells assessed as accumulation of cells at G2/M phase at 1 nM incubated for 24 hrs by PI staining based flow cytometry analysis (reference value: 28.94%); format: functional
# [22] = test system: SK-OV-3; test: Induction of cell cycle arrest in human SK-OV-3 cells assessed as accumulation of cells at G2/M phase at 10 nM incubated for 24 hrs by PI staining based flow cytometry analysis (reference value: 28.94%); format: functional
# [23] = target: Proto-oncogene tyrosine-protein kinase Src (Homo sapiens) (UniProt P12931); test: Inhibition of Src kinase phosphorylation at Tyr416/419 residue in human SK-OV-3 cells incubated for 24 hrs by Western blot analysis; format: cell-based
# [24] = Half life in human liver microsomes; format: ADME, Microsome
# [25] = Intrinsic clearance in human liver microsomes; format: ADME, Microsome
# [26] = Toxicity in mouse xenografted with human SK-OV-3 cells assessed as effect on body weight at 5 mg/kg, po administered for 30 days; format: organism-based; conditions: in vivo, 720 h, time 30 day
# [27] = test system: SK-OV-3; test: Induction of cell cycle arrest in human SK-OV-3 cells assessed as accumulation of cells at G0/G1 phase at 10 nM incubated for 24 hrs by PI staining based flow cytometry analysis (reference value: 49.60 %); format: functional
# [28] = Antitumor activity against mouse C26 cells xenografted in BALB/c mouse assessed as tumor growth inhibition at 10 mg/kg, po measured every 2 days for 10 days by vernier caliper analysis relative to control; format: functional; conditions: 240 h, time 10 day, read-out: TGI
# [29] = test system: SK-OV-3; test: Induction of cell cycle arrest in human SK-OV-3 cells assessed as accumulation of cells at S phase at 1 nM incubated for 24 hrs by PI staining based flow cytometry analysis (reference value: 21.4 %); format: functional
# [30] = Clearance in Sprague-Dawley rat at 5 mg/kg, po measured up to 24 hrs by LC/MS/MS analysis; format: ADME, organism-based; conditions: in vivo
# [31] = Antitumor activity against human SK-OV-3 cells xenografted in nude mouse assessed as tumor growth inhibition at 5 mg/kg, po measured every 3 days for 1 month by vernier caliper analysis relative to control; format: functional; conditions: SK-OV-3, po, 730 h, time 1 months, read-out: TGI
# [32] = target: Focal adhesion kinase 1 (Homo sapiens) (UniProt Q05397); test: Inhibition of FAK phosphorylation at […] residue in human SK-OV-3 cells incubated for 24 hrs by Western blot analysis; format: cell-based
# [33] = target: Tubulin (Homo sapiens) (UniProt P68371+Q9H4B7+P0DPH7+P68366+Q13509+Q71U36+P04350+Q3ZCM7+P07437+P68363+Q9BQE3+Q6PEY2+Q13885+Q9BVA1+Q9BUF5); test: Inhibition of tubulin polymerization in human SK-OV-3 cells at 5 uM incubated for 16 hrs by fluorescence microscopic analysis; format: cell-based
# Chain of Proto-oncogene tyrosine-protein kinase Src (Homo sapiens) (P12931 2-536 limits assumed): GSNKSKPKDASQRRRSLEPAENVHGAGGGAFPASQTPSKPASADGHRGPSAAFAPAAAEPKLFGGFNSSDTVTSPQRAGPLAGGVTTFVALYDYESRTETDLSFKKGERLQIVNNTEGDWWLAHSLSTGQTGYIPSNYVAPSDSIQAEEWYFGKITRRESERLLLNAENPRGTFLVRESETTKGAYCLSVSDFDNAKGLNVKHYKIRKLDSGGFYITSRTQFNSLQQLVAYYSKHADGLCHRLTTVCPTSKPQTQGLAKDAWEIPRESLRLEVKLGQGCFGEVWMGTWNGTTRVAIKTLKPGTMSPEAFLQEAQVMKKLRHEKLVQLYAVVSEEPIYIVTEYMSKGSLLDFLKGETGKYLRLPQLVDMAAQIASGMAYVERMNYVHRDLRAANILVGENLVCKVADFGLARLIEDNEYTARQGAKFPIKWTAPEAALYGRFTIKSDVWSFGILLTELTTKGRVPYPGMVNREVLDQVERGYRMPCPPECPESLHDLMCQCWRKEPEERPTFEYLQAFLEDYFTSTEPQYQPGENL
# Chain of Focal adhesion kinase 1 (Homo sapiens) (Q05397 2-1052 limits assumed): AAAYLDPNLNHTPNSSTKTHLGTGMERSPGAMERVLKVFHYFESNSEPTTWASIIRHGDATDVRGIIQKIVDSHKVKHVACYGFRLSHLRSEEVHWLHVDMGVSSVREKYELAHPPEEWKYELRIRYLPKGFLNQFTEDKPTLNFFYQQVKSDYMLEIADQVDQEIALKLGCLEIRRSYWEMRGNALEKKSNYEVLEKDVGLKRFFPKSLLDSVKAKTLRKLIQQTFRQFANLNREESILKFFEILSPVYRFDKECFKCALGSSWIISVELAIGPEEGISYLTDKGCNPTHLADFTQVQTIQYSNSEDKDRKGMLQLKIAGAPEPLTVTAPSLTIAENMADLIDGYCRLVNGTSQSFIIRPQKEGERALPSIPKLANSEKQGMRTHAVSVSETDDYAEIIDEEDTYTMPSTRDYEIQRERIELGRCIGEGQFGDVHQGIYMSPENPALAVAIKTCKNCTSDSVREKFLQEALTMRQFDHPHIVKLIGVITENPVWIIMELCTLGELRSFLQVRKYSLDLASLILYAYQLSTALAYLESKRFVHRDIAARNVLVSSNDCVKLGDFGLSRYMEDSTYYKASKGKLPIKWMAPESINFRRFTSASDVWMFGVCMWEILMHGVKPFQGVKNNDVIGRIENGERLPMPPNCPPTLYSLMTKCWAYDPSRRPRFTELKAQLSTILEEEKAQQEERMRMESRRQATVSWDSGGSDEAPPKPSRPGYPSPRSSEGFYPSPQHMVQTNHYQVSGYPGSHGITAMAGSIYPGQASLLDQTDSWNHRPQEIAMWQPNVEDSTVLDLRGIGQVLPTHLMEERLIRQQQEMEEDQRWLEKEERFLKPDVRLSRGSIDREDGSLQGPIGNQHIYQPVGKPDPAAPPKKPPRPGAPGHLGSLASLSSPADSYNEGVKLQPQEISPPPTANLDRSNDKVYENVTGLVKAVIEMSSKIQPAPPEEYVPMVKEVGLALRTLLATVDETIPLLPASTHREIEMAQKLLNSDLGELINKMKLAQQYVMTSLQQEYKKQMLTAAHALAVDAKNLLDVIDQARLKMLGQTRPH
smiles,measurement,setting,value
COc1cc2c(c(OC)c1OC)-c1ccc(OC)c(=O)cc1[C@@H](NC(C)=O)CC2,Activity,[1],inactive
O=C(Cc1ccc(-c2ccc(OCCN3CCN(C(=O)C4CC4(F)F)CC3)cc2)cn1)NCc1ccccc1 (centres undefined),IC50,[2],53.5 nM
same,IC50,[3],48.1 nM
same,IC50,[4],16.8 nM
O=C(Cc1ccc(-c2ccc(OCCN3CC4CC4C3)cc2)cn1)NCc1ccccc1 (centres undefined),IC50,[2],29.2 nM
same,IC50,[3],19.6 nM
same,IC50,[4],9.1 nM
O=C(Cc1ccc(-c2ccc(OCCN3CC4CCC(C3)O4)cc2)cn1)NCc1ccccc1,IC50,[2],6.2 nM
same,IC50,[3],3.1 nM
same,IC50,[4],3.2 nM
O=C(Cc1ccc(-c2ccc(OCCN3CCN(C(=O)CC4CC4)CC3)cc2)cn1)NCc1ccccc1,Activity,[5],15.86%
same,Activity,[6],45.93%
same,Tmax,[7],19.8 min
same,Activity,[8],Active
same,Activity,[9],Non-Toxic
same,Activity,[10],Non-Toxic
same,Activity,[11],Active
same,inhibition in vivo at 10 mg/kg,[12],70%
same,Kd,[13],610 nM
same,IC50,[2],1 nM
same,IC50,[3],1.4 nM
same,Cmax,[14],398 ng/mL
same,AUC(0-t) at 24 h,[15],1050 ng·h/mL
same,half-life,[16],231 min
same,Activity,[17],39.47%
same,bioavailability,[18],24.3%
same,Activity,[19],21.42%
same,Activity,[20],39.12%
same,Activity,[21],32.11%
same,IC50,[4],0.61 nM
same,Activity,[22],72.04%
same,inhibition,[23],Dose-Dependent Effect
same,half-life,[24],27.8 min
same,CLH,[25],49.8 mL·min/g
same,Activity,[26],Non-Toxic
same,Activity,[27],12.1%
same,inhibition in vivo at 10 mg/kg,[28],71%
same,Activity,[29],21.96%
same,CL/F,[30],80.2 mL/min/kg
same,inhibition in vivo at 5 mg/kg,[31],52%
same,inhibition,[32],Dose-Dependent Effect
same,inhibition,[33],Active
O=C(Cc1ccc(-c2ccc(OCCCCN3CC4CCC(C3)O4)cc2)cn1)NCc1ccccc1,IC50,[2],40.5 nM
same,IC50,[3],17.3 nM
same,IC50,[4],21.8 nM
O=C(Cc1ccc(-c2ccc(OCCCCN3C[C@@H]4C[C@H]3CO4)cc2)cn1)NCc1ccccc1,IC50,[2],53.2 nM
same,IC50,[3],25 nM
same,IC50,[4],37 nM
O=C(Cc1ccc(-c2ccc(OCCN3CCN(C(=O)[C@H]4C[C@@H]4F)CC3)cc2)cn1)NCc1ccccc1,IC50,[2],29.4 nM
same,IC50,[3],25.7 nM
same,IC50,[4],12.6 nM
O=C(Cc1ccc(-c2ccc(OCCN3CCN(S(=O)(=O)C4CC4)CC3)cc2)cn1)NCc1ccccc1,IC50,[2],5.8 nM
same,IC50,[3],4.1 nM
same,IC50,[4],2.4 nM
CC(C)(C)N1CCN(CCOc2ccc(-c3ccc(CC(=O)NCc4ccccc4)nc3)cc2)CC1,IC50,[2],> 100 nM
same,IC50,[3],43.3 nM
same,IC50,[4],119 nM
O=C(Cc1ccc(-c2ccc(OCCCN3CC4CCC(C3)O4)cc2)cn1)NCc1ccccc1,IC50,[2],14.6 nM
same,IC50,[3],8.6 nM
same,IC50,[4],7.1 nM
O=C(Cc1ccc(-c2ccc(OCCN3CC4CCCCC4C3)cc2)cn1)NCc1ccccc1 (centres undefined),IC50,[2],37.9 nM
same,IC50,[3],19.7 nM
same,IC50,[4],74.9 nM
O=C(Cc1ccc(-c2ccc(OCCN3CCN(C(=O)C4CCC4)CC3)cc2)cn1)NCc1ccccc1,Tmax,[7],8.4 min
same,Activity,[10],Non-Toxic
same,Kd,[13],630 nM
same,IC50,[2],2.3 nM
same,IC50,[3],1.5 nM
same,Cmax,[14],484 ng/mL
same,AUC(0-t) at 24 h,[15],383 ng·h/mL
same,half-life,[16],139 min
same,bioavailability,[18],13.3%
same,IC50,[4],0.59 nM
same,inhibition,[23],Dose-Dependent Effect
same,half-life,[24],20.6 min
same,CLH,[25],67.4 mL·min/g
same,inhibition in vivo at 10 mg/kg,[28],32%
same,CL/F,[30],209 mL/min/kg
same,inhibition,[32],Dose-Dependent Effect
